Measurements reported in article PMC4775402 (Pharmacological research, 2016).

Legend:
[1] = molecular target: ΔPDZ HTR2A (Homo sapiens, UniProt P28223); experiment: Label-free DMR agonist response, HEK293T expressing ΔPDZ HTR2A; assay type: cell-based
[2] = molecular target: WT HTR2A (Homo sapiens, UniProt P28223); experiment: Label-free DMR agonist response, HEK293T expressing WT HTR2A; assay type: cell-based; details: time to peak DMR
Sequence of WT HTR2A (P28223 whole entry): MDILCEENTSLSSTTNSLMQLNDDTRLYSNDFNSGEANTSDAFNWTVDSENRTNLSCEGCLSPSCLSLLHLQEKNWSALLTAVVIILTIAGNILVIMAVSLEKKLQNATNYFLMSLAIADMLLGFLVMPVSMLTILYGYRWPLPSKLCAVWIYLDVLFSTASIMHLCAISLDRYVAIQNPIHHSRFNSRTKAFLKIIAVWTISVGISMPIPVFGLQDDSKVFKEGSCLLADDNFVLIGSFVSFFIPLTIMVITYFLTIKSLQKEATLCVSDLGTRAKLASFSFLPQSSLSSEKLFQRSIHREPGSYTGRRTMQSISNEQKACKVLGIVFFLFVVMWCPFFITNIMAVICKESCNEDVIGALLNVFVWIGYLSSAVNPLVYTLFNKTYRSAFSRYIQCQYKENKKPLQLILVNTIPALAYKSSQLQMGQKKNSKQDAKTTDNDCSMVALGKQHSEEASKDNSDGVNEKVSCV

Sequence of ΔPDZ HTR2A (P28223 1-467 limits assumed, stated change not applied): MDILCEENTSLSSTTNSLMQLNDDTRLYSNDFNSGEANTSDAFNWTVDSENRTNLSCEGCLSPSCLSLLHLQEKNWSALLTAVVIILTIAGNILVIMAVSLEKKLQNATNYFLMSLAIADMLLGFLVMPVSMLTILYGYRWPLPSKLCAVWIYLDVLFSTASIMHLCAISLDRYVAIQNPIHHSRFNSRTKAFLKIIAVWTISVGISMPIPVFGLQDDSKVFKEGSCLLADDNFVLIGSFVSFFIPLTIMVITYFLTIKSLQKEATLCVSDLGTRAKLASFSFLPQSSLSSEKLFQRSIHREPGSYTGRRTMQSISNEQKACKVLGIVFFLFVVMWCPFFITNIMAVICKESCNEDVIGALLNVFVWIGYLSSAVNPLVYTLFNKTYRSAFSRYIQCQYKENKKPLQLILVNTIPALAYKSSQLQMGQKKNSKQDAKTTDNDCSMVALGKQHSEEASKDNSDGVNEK

Cl.NCCc1c[nH]c2ccc(O)cc12 [5-hydroxytryptamine, 5-hydroxytryptamine hydrochloride]
ΔPDZ Max (DMR) ([1]; maximal agonist DMR response): 106.10 ± 3.96
ΔPDZ TTP ([1]; time to peak DMR): 14.70 s
WT TTP [2]: 14.10 s
